Reference: patent publication US10851073B2, “Protein tyrosine phosphatase inhibitors and methods of use thereof” (Calico Life Sciences LLC, priority 2019, dated 2020)
pIC50: −log10 of the molar value.

System: B16F10 mouse melanoma cells
Experiment: B16F10 IFNγ-induced cellular growth inhibition assay
Assay type: cell-based
Conditions: B16-F10, with 0.5 ng/mL IFNγ, read-out: B16F10 GI IC50
Method: Example 229: B16F10 IFNγ-Induced Cellular Growth Inhibition Assay B16F10 mouse melanoma cells (ATCC Cat^# CRL-6475, Manassas, Va.) were seeded at a density of 500 cells per well in a 384-well clear bottom plate (Corning Cat^#3765, Corning, N.Y.) in 25 μL total volume of DMEM+10% FBS (Sigma Cat^# D6429 and Sigma Cat^# F4135, St. Louis, Mo.). Cells were allowed to adhere overnight at 37° C.+5% CO2. On the following day, 12.5 μL of mouse IFNγ (RD systems Cat^#485-MI/CF, Minneapolis, Minn.) was added to half of the plate (columns 13-24) at a concentration of 2 ng/mL for a final assay concentration of 0.5 ng/mL of IFNγ. Media only (12.5 μL of DMEM+10% FBS) was added to the remainder of the plate (columns 1-12). Next, compounds resuspended in DMSO (Sigma Cat^# D2650) at 100 mM were diluted in semi-log dilutions in DMSO ranging from 100 mM to 0.001 mM and DMSO only controls were included. The compound/DMSO dilutions were further diluted 1:250 in DMEM+10% FBS, and 12.5 μL of these dilutions were added in triplicates to cells of both treatment arms (with and without IFNγ). Final compound concentrations ranged from 100 μM to 0.001 μM with a final DMSO concentration of 0.1%. Compounds were only dosed in the inner 240 wells, avoiding the outer 2-well perimeter of the plate to minim/ze edge effects. Finally, the plate was loaded into an IncuCyte® S3 Live Cell Analysis System (Essen Bioscience-Sartorius, Ann Arbor, Mich.) maintained in a 37° C.+5% CO2 incubator, allowed to equilibrate for 2 hours, and imaged every 6 hours for 5 days. Confluence over time for compound dilutions in the presence and absence of IFNγ was measured. Growth inhibition values were obtained when the “DMSO/no IFNγ” control reached confluence >95%. At these time points, for each compound the percent growth inhibition at every compound dose level was calculated relative to the “DMSO/with IFNγ” control and used to determine the IC50.

pIC50 | SMILES
4.00 to 5.00 | O=C1CN(c2c(O)cc3c(c2F)CCCC3)S(=O)(=O)N1 [Compound 108, 5-(1-fluoro-3-hydroxy-5,6,7,8-tetrahydronaphthalen-2-yl)-1λ^6,2,5-thiadiazolidine-1,1,3-trione]
4.00 to 5.00 | O=C1CN(c2c(O)cc3c(c2F)CCCO3)S(=O)(=O)N1 [Compound 111, 5-(5-fluoro-7-hydroxy-3,4-dihydro-2H-1-benzopyran-6-yl)-1λ^6,2,5-thiadiazolidine-1,1,3-trione]
4.00 to 5.00 | CC1(C)CCc2c(cc(O)c(N3CC(=O)NS3(=O)=O)c2F)O1 [Compound 112, 5-(5-fluoro-7-hydroxy-2,2-dimethyl-3,4-dihydro-2H-1-benzopyran-6-yl)-1λ^6,2,5-thiadiazolidine-1,1,3-trione]
5.00 to 6.00 | CC(C)CCCN1CCc2cc(O)c(N3CC(=O)NS3(=O)=O)c(F)c2C1 [Compound 145, 5-[8-fluoro-6-hydroxy-2-(4-methylpentyl)-1,2,3,4-tetrahydroisoquinolin-7-yl]-1λ^6,2,5-thiadiazolidine-1,1,3-trione]
< 4.00 | O=C1CN(c2c(O)cc3c(c2F)CN(CCCCC(F)(F)F)CC3)S(=O)(=O)N1 [Compound 153, 5-[8-fluoro-6-hydroxy-2-(5,5,5-trifluoropentyl)-1,2,3,4-tetrahydroisoquinolin-7-yl]-1λ^6,2,5-thiadiazolidine-1,1,3-trione]
4.00 to 5.00 | O=C1CN(c2c(O)cc3c(c2F)CC(NCc2ccccn2)CC3)S(=O)(=O)N1 (stereo not shown) [Compound 155, 5-(1-fluoro-3-hydroxy-7-{[(pyridin-2-yl)methyl]amino}-5,6,7,8-tetrahydronaphthalen-2-yl)-1λ^6,2,5-thiadiazolidine-1,1,3-trione]
4.00 to 5.00 | O=C1CN(c2c(O)cc3c(c2F)CN(CCCCCC(F)(F)F)CC3)S(=O)(=O)N1 [Compound 161, 5-[8-fluoro-6-hydroxy-2-(6,6,6-trifluorohexyl)-1,2,3,4-tetrahydroisoquinolin-7-yl]-1λ^6,2,5-thiadiazolidine-1,1,3-trione]
5.00 to 6.00 | O=C1CN(c2c(O)cc3c(c2F)CN(CCC2CCCCC2)CC3)S(=O)(=O)N1 [Compound 179, 5-[2-(2-cyclohexylethyl)-8-fluoro-6-hydroxy-1,2,3,4-tetrahydroisoquinolin-7-yl]-1λ^6,2,5-thiadiazolidine-1,1,3-trione]
4.00 to 5.00 | O=C1CN(c2c(O)cc3c(c2F)CN(Cc2ccccn2)CC3)S(=O)(=O)N1 [Compound 184, 5-{8-fluoro-6-hydroxy-2-[(pyridin-2-yl)methyl]-1,2,3,4-tetrahydroisoquinolin-7-yl}-1λ^6,2,5-thiadiazolidine-1,1,3-trione]
5.00 to 6.00 | Cc1n[nH]c(C)c1CCN1CCc2cc(O)c(N3CC(=O)NS3(=O)=O)c(F)c2C1 [Compound 194, 5-{2-[2-(3,5-dimethyl-1H-pyrazol-4-yl)ethyl]-8-fluoro-6-hydroxy-1,2,3,4-tetrahydroisoquinolin-7-yl}-1λ^6,2,5-thiadiazolidine-1,1,3-trione]
5.00 to 6.00 | O=C1CN(c2c(O)cc3c(c2F)CN(CCCC2CCOCC2)CC3)S(=O)(=O)N1 [Compound 196, 5-{8-fluoro-6-hydroxy-2-[3-(oxan-4-yl)propyl]-1,2,3,4-tetrahydroisoquinolin-7-yl}-1λ^6,2,5-thiadiazolidine-1,1,3-trione]
> 6.00 | O=C1CN(c2c(O)cc3c(c2F)C[C@H](NCCC2CC(F)(F)C2)CC3)S(=O)(=O)N1 [Compound 202, 5-[(7R)-7-{[2-(3,3-difluorocyclobutyl)ethyl]amino}-1-fluoro-3-hydroxy-5,6,7,8-tetrahydronaphthalen-2-yl]-1λ^6,2,5-thiadiazolidine-1,1,3-trione]
5.00 to 6.00 | CC(C)CCNC(=O)N1CCc2cc(O)c(N3CC(=O)NS3(=O)=O)c(F)c2C1 [Compound 205, 8-fluoro-6-hydroxy-N-(3-methylbutyl)-7-(1,1,4-trioxo-1λ^6,2,5-thiadiazolidin-2-yl)-3,4-dihydroisoquinoline-2(1H)-carboxamide]
5.00 to 6.00 | CC(C)CNC(=O)N1CCc2cc(O)c(N3CC(=O)NS3(=O)=O)c(F)c2C1 [Compound 206, 8-fluoro-6-hydroxy-N-(2-methylpropyl)-7-(1,1,4-trioxo-1λ^6,2,5-thiadiazolidin-2-yl)-3,4-dihydroisoquinoline-2(1H)-carboxamide]
4.00 to 5.00 | Cc1noc(C)c1CN1CCc2cc(O)c(N3CC(=O)NS3(=O)=O)c(F)c2C1 [Compound 208, 5-{2-[(3,5-dimethyl-1,2-oxazol-4-yl)methyl]-8-fluoro-6-hydroxy-1,2,3,4-tetrahydroisoquinolin-7-yl}-1λ^6,2,5-thiadiazolidine-1,1,3-trione]
5.00 to 6.00 | Cc1nn(C)c(C)c1CCN1CCc2cc(O)c(N3CC(=O)NS3(=O)=O)c(F)c2C1 [Compound 209, 5-{8-fluoro-6-hydroxy-2-[2-(1,3,5-trimethyl-1H-pyrazol-4-yl)ethyl]-1,2,3,4-tetrahydroisoquinolin-7-yl}-1λ^6,2,5-thiadiazolidine-1,1,3-trione]
> 6.00 | Cc1noc(C)c1CCN1CCc2cc(O)c(N3CC(=O)NS3(=O)=O)c(F)c2C1 [Compound 211, 5-{2-[2-(3,5-dimethyl-1,2-oxazol-4-yl)ethyl]-8-fluoro-6-hydroxy-1,2,3,4-tetrahydroisoquinolin-7-yl}-1λ^6,2,5-thiadiazolidine-1,1,3-trione]
5.00 to 6.00 | O=C1CN(c2c(O)cc3c(c2F)CN(CCC2CCOCC2)CC3)S(=O)(=O)N1 [Compound 214, 5-{8-fluoro-6-hydroxy-2-[2-(oxan-4-yl)ethyl]-1,2,3,4-tetrahydroisoquinolin-7-yl}-1λ^6,2,5-thiadiazolidine-1,1,3-trione]
5.00 to 6.00 | COCCCN1CCc2cc(O)c(N3CC(=O)NS3(=O)=O)c(F)c2C1 [Compound 217, 5-[8-fluoro-6-hydroxy-2-(3-methoxypropyl)-1,2,3,4-tetrahydroisoquinolin-7-yl]-1λ^6,2,5-thiadiazolidine-1,1,3-trione]
4.00 to 5.00 | NCCCN1CCc2cc(O)c(N3CC(=O)NS3(=O)=O)c(F)c2C1 [Compound 218, 5-[2-(3-aminopropyl)-8-fluoro-6-hydroxy-1,2,3,4-tetrahydroisoquinolin-7-yl]-1λ^6,2,5-thiadiazolidine-1,1,3-trione]
5.00 to 6.00 | CC(C)(C)OC(=O)N1CCc2cc(O)c(N3CC(=O)NS3(=O)=O)c(F)c2C1 [Compound 221, tert-butyl 8-fluoro-6-hydroxy-7-(1,1,4-trioxo-1λ^6,2,5-thiadiazolidin-2-yl)-3,4-dihydroisoquinoline-2(1H)-carboxylate]
5.00 to 6.00 | O=C1CN(c2c(O)cc3c(c2F)CN(CCCN2CCOCC2)CC3)S(=O)(=O)N1 [Compound 229, 5-{8-fluoro-6-hydroxy-2-[3-(morpholin-4-yl)propyl]-1,2,3,4-tetrahydroisoquinolin-7-yl}-1λ^6,2,5-thiadiazolidine-1,1,3-trione]
5.00 to 6.00 | O=C1CN(c2c(O)cc3c(c2F)CN(CC[C@H]2C[C@@H](OC(F)(F)F)C2)CC3)S(=O)(=O)N1 [Compound 231, 5-(8-fluoro-6-hydroxy-2-{2-[(1s,3r)-3-(trifluoromethoxy)cyclobutyl]ethyl}-1,2,3,4-tetrahydroisoquinolin-7-yl)-1λ^6,2,5-thiadiazolidine-1,1,3-trione]
5.00 to 6.00 | Cc1nn(C(F)F)c(C)c1CCN1CCc2cc(O)c(N3CC(=O)NS3(=O)=O)c(F)c2C1 [Compound 238, 5-(2-{2-[1-(difluoromethyl)-3,5-dimethyl-1H-pyrazol-4-yl]ethyl}-8-fluoro-6-hydroxy-1,2,3,4-tetrahydroisoquinolin-7-yl)-1λ^6,2,5-thiadiazolidine-1,1,3-trione]
5.00 to 6.00 | O=C1CN(c2c(O)cc3c(c2F)CN(CCC2(C(F)(F)F)CC2)CC3)S(=O)(=O)N1 [Compound 243, 5-(8-fluoro-6-hydroxy-2-{2-[1-(trifluoromethyl)cyclopropyl]ethyl}-1,2,3,4-tetrahydroisoquinolin-7-yl)-1λ^6,2,5-thiadiazolidine-1,1,3-trione]
5.00 to 6.00 | C[C@H](N)CN1CCc2cc(O)c(N3CC(=O)NS3(=O)=O)c(F)c2C1 [Compound 245, 5-{2-[(2S)-2-aminopropyl]-8-fluoro-6-hydroxy-1,2,3,4-tetrahydroisoquinolin-7-yl}-1λ^6,2,5-thiadiazolidine-1,1,3-trione]
4.00 to 5.00 | O=C1CN(c2c(O)cc3c(c2F)CN(CCN2CCNCC2)CC3)S(=O)(=O)N1 [Compound 247, 5-{8-fluoro-6-hydroxy-2-[2-(piperazin-1-yl)ethyl]-1,2,3,4-tetrahydroisoquinolin-7-yl}-1λ^6,2,5-thiadiazolidine-1,1,3-trione]

SMILES | pIC50
O=C1CN(c2c(O)cc3c(c2F)CNCC3)S(=O)(=O)N1 [Compound 143, 5-(8-fluoro-6-hydroxy-1,2,3,4-tetrahydroisoquinolin-7-yl)-1λ^6,2,5-thiadiazolidine-1,1,3-trione] | 5.00 to 6.00
